The values below come from patent US12187709B2 (Genentech, Inc., priority 2021, dated 2025).

One may read the IC50 as the concentration needed to halve the response being measured. High values mean weaker potency in that assay, low ones greater potency in that assay. The term Kd denotes the free concentration of one partner at which half of the binding sites on the other are occupied at equilibrium, for simple one-to-one binding.

For one assay, the target named is c-Cbl (Homo sapiens (Human), UniProt P22681). As to the kind of experiment: C-Cbl LCK Ub TR-FRET assay (C-cbl Lck HTRF). The class given is biochemical. A digest of the protocol: (§1)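 After the ubiquitination reaction, detection mixture was added and plates incubated 20 min at room temperature before reading. IC50 values were calculated with wells lacking LCK as the low control and DMSO as the high control.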
A general note: Time-resolved FRET reads energy transfer from a long-lived donor to a nearby acceptor.

The target of assay [1] is Human Cbl-b (residues 40-426) (Homo sapiens (Human), UniProt Q13191). In words: Cbl-b SPR assay. It counts as binding. Particulars: for Fold of selectivity: C-cbl SPR Kd vs Cbl-b SPR Kd; for Kd: SPR, 20° C. The procedure, abridged: (§2)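 Protein captured at 1300-1500 RU; compounds run as 6-point 2-fold series in multi-cycle kinetics (60 s contact, 40 μl/min, 120-1200 s dissociation), fitted 1:1. For slow binders, kd came from chaser-compound occupancy over time, fixed in a single-cycle fit (5 concentrations, top 500 nM).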
On the technique in general: Surface plasmon resonance follows binding to a sensor surface in real time, without labels.

Another assay has as its target Cbl-b (Homo sapiens (Human), UniProt Q13191). In words: Cbl-b LCK Ub TR-FRET assay (Cbl-b Lck HTRF). It counts as biochemical. Particulars: for IC50: Cbl-b LCK Ub TR-FRET; for fold-selectivity (Cbl-b over C-cbl): ratio C-cbl Lck HTRF IC50 / Cbl-b Lck HTRF IC50. The procedure, abridged: as §1
In the next assay the target is c-Cbl (residues 47-435) (Homo sapiens (Human), UniProt P22681). In words: c-Cbl SPR assay. It counts as binding. The conditions noted are these: 20° C. A digest of the protocol:
as §2

Sequence of c-Cbl (P22681 47-435): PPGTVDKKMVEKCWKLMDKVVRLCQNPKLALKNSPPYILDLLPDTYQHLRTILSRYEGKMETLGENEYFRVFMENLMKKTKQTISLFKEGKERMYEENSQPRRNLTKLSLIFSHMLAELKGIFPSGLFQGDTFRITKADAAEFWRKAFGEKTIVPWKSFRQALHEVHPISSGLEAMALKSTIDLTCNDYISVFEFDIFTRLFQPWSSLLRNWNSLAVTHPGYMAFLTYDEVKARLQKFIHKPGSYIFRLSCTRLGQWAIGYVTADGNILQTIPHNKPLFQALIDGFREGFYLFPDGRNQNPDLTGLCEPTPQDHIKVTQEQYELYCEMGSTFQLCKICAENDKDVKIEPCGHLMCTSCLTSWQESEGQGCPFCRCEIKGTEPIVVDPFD
Sequence of c-Cbl (residues 47-435) (P22681 47-435): as above
Sequence of Human Cbl-b (residues 40-426) (Q13191 40-426): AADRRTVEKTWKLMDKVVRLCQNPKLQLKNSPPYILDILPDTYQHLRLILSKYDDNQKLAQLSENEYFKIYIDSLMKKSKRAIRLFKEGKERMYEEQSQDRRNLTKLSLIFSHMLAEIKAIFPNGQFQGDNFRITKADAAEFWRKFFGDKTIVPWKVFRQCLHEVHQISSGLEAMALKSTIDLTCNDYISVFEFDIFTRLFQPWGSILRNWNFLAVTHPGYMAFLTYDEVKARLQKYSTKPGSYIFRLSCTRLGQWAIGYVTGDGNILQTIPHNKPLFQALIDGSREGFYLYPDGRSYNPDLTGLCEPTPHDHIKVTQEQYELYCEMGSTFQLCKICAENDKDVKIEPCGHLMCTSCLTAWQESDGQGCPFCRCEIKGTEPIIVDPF
Sequence of Cbl-b (Q13191 40-426): as above

For the compound `Cn1cnnc1C1(c2cccc(N3Cc4c(cc(CNC5(C)CCC5)cc4C(F)(F)F)C3=O)c2)CCOCC1` [Compound 282, 2-(3-(4-(4-methyl-4H-1,2,4-triazol-3-yl)tetrahydro-2H-pyran-4-yl)phenyl)-6-(((1-methylcyclobutyl)amino)methyl)-4-(trifluoromethyl)isoindolin-1-one], the IC50 against c-Cbl came to 2800 nM. In assay [1], the Fold of selectivity came out at 10× and binding was characterised by a dissociation constant (Kd) of 230 nM. Also, on Cbl-b, the IC50 was 410 nM and the “fold-selectivity (Cbl-b over C-cbl)” value was determined as 6.5x. For the same compound, on c-Cbl (residues 47-435), the affinity, expressed as Kd, was 2300 nM.

For `Cn1cnnc1C1(c2cccc(N3Cc4c(cc(CNC5(C)CCC5)cc4C(F)(F)F)C3=O)c2)CC1` [Compound 283, 2-(3-(1-(4-methyl-4H-1,2,4-triazol-3-yl)cyclopropyl)phenyl)-6-(((1-methylcyclobutyl)amino)methyl)-4-(trifluoromethyl)isoindolin-1-one], the half-inhibitory concentration (IC50) against c-Cbl worked out at 220 nM; on Cbl-b it was 81 nM. In assay [1], the Fold of selectivity turned out to be 5.3×. Moreover, the Kd came out at 43 nM in assay [1] and 220 nM at c-Cbl (residues 47-435). The “fold-selectivity (Cbl-b over C-cbl)” value on Cbl-b was 2.7x.

As for `C[C@H](NC1(C)CCC1)c1cc2c(c(C(F)(F)F)c1)CN(c1cccc(C(c3nncn3C)C3COC3)c1)C2=O` (stereo partly drawn) [Compound 285], on c-Cbl, half-maximal inhibition (IC50) was put at 6.5 nM. In addition, in assay [1], the Fold of selectivity came out at 1.1× and binding was characterised by a dissociation constant (Kd) of 0.7 nM. For the same compound, on Cbl-b, the IC50 was found to be 6 nM and the “fold-selectivity (Cbl-b over C-cbl)” value is 1.1x. Also, binding on c-Cbl (residues 47-435) was characterised by a dissociation constant (Kd) of 0.8 nM.

`Cn1cnnc1C1(c2cccc(N3Cc4c(cc(CNC5(C)CCC5)cc4C(F)(F)F)C3=O)c2)CCCC1` [Compound 292, 2-(3-(1-(4-methyl-4H-1,2,4-triazol-3-yl)cyclopentyl)phenyl)-6-(((1-methylcyclobutyl)amino)methyl)-4-(trifluoromethyl)isoindolin-1-one] showed an IC50 on c-Cbl of 23 nM. In assay [1], this compound had a Fold of selectivity of 6.3× and a Kd of 5 nM. Moreover, on Cbl-b, it took 9.8 nM to reach half-maximal inhibition (IC50) and the “fold-selectivity (Cbl-b over C-cbl)” value came out at 2.4x. At c-Cbl (residues 47-435), this compound displayed a Kd of 31 nM.

At c-Cbl, `Cn1cnnc1C1(c2cccc(N3Cc4c(cc(CNC5(C)CCC5)cc4C(F)(F)F)C3=O)c2)CC2(C1)OCCO2` [Compound 293, 2-(3-(2-(4-methyl-4H-1,2,4-triazol-3-yl)-5,8-dioxaspiro[3.4]octan-2-yl)phenyl)-6-(((1-methylcyclobutyl)amino)methyl)-4-(trifluoromethyl)isoindolin-1-one] came in with a concentration for half-maximal inhibition (IC50) of 190 nM. In assay [1], this compound yielded a Fold of selectivity of 4.0× and a dissociation constant Kd of 53 nM. In addition, at Cbl-b, the midpoint of inhibition, the IC50, lay at 64 nM and the “fold-selectivity (Cbl-b over C-cbl)” value turned out to be 3.0x. The same compound registered a dissociation constant (Kd) at c-Cbl (residues 47-435) of 200 nM.

On c-Cbl, `Cn1cnnc1[C@H](C[C@H]1COCCO1)c1cccc(N2Cc3c(cc(CNC4(C)CCC4)cc3C(F)(F)F)C2=O)c1` [Compound 294, 2-(3-((R)-2-((S)-1,4-dioxan-2-yl)-1-(4-methyl-4H-1,2,4-triazol-3-yl)ethyl)phenyl)-6-(((1-methylcyclobutyl)amino)methyl)-4-(trifluoromethyl)isoindolin-1-one] displayed a concentration for half-maximal inhibition (IC50) of 660 nM. In assay [1], the Fold of selectivity was determined as 1.3× and binding was put at a Kd of 530 nM. On Cbl-b, the IC50 amounted to 400 nM and the “fold-selectivity (Cbl-b over C-cbl)” value is listed as 1.6x. Besides, on c-Cbl (residues 47-435), the equilibrium dissociation constant (Kd) was determined as 720 nM.

`Cn1cnnc1[C@H](C[C@@H]1COCCO1)c1cccc(N2Cc3c(cc(CNC4(C)CCC4)cc3C(F)(F)F)C2=O)c1` [Compound 297, 2-(3-((R)-2-((R)-1,4-dioxan-2-yl)-1-(4-methyl-4H-1,2,4-triazol-3-yl)ethyl)phenyl)-6-(((1-methylcyclobutyl)amino)methyl)-4-(trifluoromethyl)isoindolin-1-one]: half-maximal inhibition on c-Cbl (IC50) was put at 2300 nM. In assay [1], this compound had a Fold of selectivity of 2.0× and a Kd of 2800 nM. Further, at Cbl-b, the IC50 is 1300 nM and the “fold-selectivity (Cbl-b over C-cbl)” value was found to be 1.8x. The same compound yielded a Kd on c-Cbl (residues 47-435) of 5800 nM.

In turn, `Cn1cnnc1C1(c2cccc(N3Cc4c(cc(CNC5(C)CCC5)cc4C(F)(F)F)C3=O)c2)CCCCC1` [Compound 298, 2-(3-(1-(4-methyl-4H-1,2,4-triazol-3-yl)cyclohexyl)phenyl)-6-(((1-methylcyclobutyl)amino)methyl)-4-(trifluoromethyl)isoindolin-1-one] registered a concentration for half-maximal inhibition (IC50) at c-Cbl of 1500 nM. In assay [1], this compound displayed a Fold of selectivity of 5.9× and a dissociation constant (Kd) of 480 nM. On Cbl-b, the half-inhibitory concentration (IC50) turned out to be 660 nM and the “fold-selectivity (Cbl-b over C-cbl)” value is given as 2.3x. The compound also yielded a dissociation constant Kd on c-Cbl (residues 47-435) of 2600 nM.

`Cn1cnnc1[C@@](C)(O)c1cccc(N2Cc3c(cc(CNC4(C)CCC4)cc3C(F)(F)F)C2=O)c1` [Compound 306, (S)-2-(3-(1-hydroxy-1-(4-methyl-4H-1,2,4-triazol-3-yl)ethyl)phenyl)-6-(((1-methylcyclobutyl)amino)methyl)-4-(trifluoromethyl)isoindolin-1-one] showed an IC50 against c-Cbl of 230 nM. In assay [1], the Fold of selectivity was found to be 2.0× and the Kd was 140 nM. Further, at Cbl-b, the IC50 came to 140 nM and the “fold-selectivity (Cbl-b over C-cbl)” value is listed as 1.6x. Also, the Kd at c-Cbl (residues 47-435) is 280 nM.

As for `CC(C)[C@](O)(c1cccc(N2Cc3c(cc(CNC4(C)CCC4)cc3C(F)(F)F)C2=O)c1)c1nncn1C` [Compound 310, (S)-2-(3-(1-hydroxy-2-methyl-1-(4-methyl-4H-1,2,4-triazol-3-yl)propyl)phenyl)-6-(((1-methylcyclobutyl)amino)methyl)-4-(trifluoromethyl)isoindolin-1-one], the concentration for half-maximal inhibition (IC50) against c-Cbl came out at 110 nM; on Cbl-b, 24 nM. In addition, in assay [1], the Fold of selectivity is listed as 3.7×. Also, the results for the Kd (in assay [1]; at c-Cbl (residues 47-435)) were 30 nM and 110 nM, respectively. The “fold-selectivity (Cbl-b over C-cbl)” value at Cbl-b is reported as 4.7x.

As for `CC[C@H](NC1(C)CCC1)c1cc2c(c(C(F)(F)F)c1)CN(c1cccc([C@H](c3nncn3C)C3COC3)c1)C2=O` [Compound 313, 2-(3-((R)-(4-methyl-4H-1,2,4-triazol-3-yl)(oxetan-3-yl)methyl)phenyl)-6-((S)-1-((1-methylcyclobutyl)amino)propyl)-4-(trifluoromethyl)isoindolin-1-one], the midpoint of inhibition against c-Cbl, the IC50, lay at 4.4 nM. Besides, in assay [1], the Fold of selectivity was 4.0× and the equilibrium dissociation constant (Kd) turned out to be 0.2 nM. For the same compound, on Cbl-b, the 50% inhibitory concentration (IC50) was found to be 6.4 nM and the “fold-selectivity (Cbl-b over C-cbl)” value was 0.68x. The Kd on c-Cbl (residues 47-435) came to 0.8 nM.

With `CC[C@@H](NC1(C)CCC1)c1cc2c(c(C(F)(F)F)c1)CN(c1cccc([C@H](c3nncn3C)C3COC3)c1)C2=O` [Compound 314, 2-(3-((R)-(4-methyl-4H-1,2,4-triazol-3-yl)(oxetan-3-yl)methyl)phenyl)-6-((R)-1-((1-methylcyclobutyl)amino)propyl)-4-(trifluoromethyl)isoindolin-1-one], the 50% inhibitory concentration (IC50) on c-Cbl came to 51 nM; against Cbl-b, 11 nM. Besides, the Fold of selectivity in assay [1] is reported as 5.5×. The equilibrium dissociation constant (Kd) in assay [1] is 5.1 nM; at c-Cbl (residues 47-435), 28 nM. On Cbl-b, the “fold-selectivity (Cbl-b over C-cbl)” value was found to be 4.5x.

`Cn1cnnc1[C@@H](c1cccc(N2Cc3c(Cl)cc(CNC4(C)CCC4)cc3C2=O)c1)[C@H]1C[C@@H](F)C1` [Compound 317, 4-chloro-2-(3-((R)-((1s,3S)-3-fluorocylcobutyl)(4-methyl-4H-1,2,4-triazol-3-yl)methyl)phenyl)-6-(((1-methylcyclobutyl)amino)methyl)isoindolin-1-one]: the IC50 on c-Cbl was found to be 1100 nM; against Cbl-b, 170 nM. For the same compound, in assay [1], the Fold of selectivity was found to be 15×. Besides, the Kd in assay [1] is 100 nM; on c-Cbl (residues 47-435), 1500 nM. Besides, the “fold-selectivity (Cbl-b over C-cbl)” value at Cbl-b is 6.5x.

Consider `CS[C@H]1C[C@](c2cccc(N3Cc4c(cc(CNC5(C)CCC5)cc4C(F)(F)F)C3=O)c2)(c2nncn2C)C1` [Compound 323, 2-(3-((1r,3r)-1-(4-methyl-4H-1,2,4-triazol-3-yl)-3-(methylthio)cyclobutyl)phenyl)-6-(((1-methylcyclobutyl)amino)methyl)-4-(trifluoromethyl)isoindolin-1-one], for which the 50% inhibitory concentration (IC50) at c-Cbl turned out to be 7.1 nM. In assay [1], this compound registered a Fold of selectivity of 12× and a dissociation constant Kd of 0.47 nM. Moreover, on Cbl-b, the IC50 was found to be 5 nM and the “fold-selectivity (Cbl-b over C-cbl)” value is listed as 1.4x. Moreover, at c-Cbl (residues 47-435), binding was characterised by a dissociation constant (Kd) of 5.2 nM.

On to `CS[C@H]1C[C@@](c2cccc(N3Cc4c(cc(CNC5(C)CCC5)cc4C(F)(F)F)C3=O)c2)(c2nncn2C)C1` [Compound 324, 2-(3-((1s,3s)-1-(4-methyl-4H-1,2,4-triazol-3-yl)-3-(methylthio)cyclobutyl)phenyl)-6-(((1-methylcyclobutyl)amino)methyl)-4-(trifluoromethyl)isoindolin-1-one], for which the half-maximal inhibitory concentration (IC50) at c-Cbl is 7.1 nM. In assay [1], this compound registered a Fold of selectivity of 10× and an equilibrium dissociation constant (Kd) of 0.57 nM. At Cbl-b, the half-maximal inhibitory concentration (IC50) was 4.8 nM and the “fold-selectivity (Cbl-b over C-cbl)” value is 1.5x. Also, the Kd on c-Cbl (residues 47-435) stood at 5.7 nM.

Regarding `Cn1cnnc1C1(c2cccc(N3Cc4c(cc(C(N)=O)cc4C(F)(F)F)C3=O)c2)CCC1` [Compound 327, 2-(3-(1-(4-methyl-4H-1,2,4-triazol-3-yl)cyclobutyl)phenyl)-3-oxo-7-(trifluoromethyl)isoindoline-5-carboxamide], the IC50 was determined as 550 nM on c-Cbl and 190 nM at Cbl-b. Also, in assay [1], the Fold of selectivity amounted to 4.7×. The Kd in assay [1] was 210 nM; on c-Cbl (residues 47-435), 980 nM. Further, at Cbl-b, the “fold-selectivity (Cbl-b over C-cbl)” value is on record as 2.9x.
